Laboratory results published in patent publication US11739098B2 (BRISTOL-MYERS SQUIBB COMPANY, priority 2017, dated 2023).

How the values were obtained:
Assay type in all cases: cell-based
[1] = biological target: T1, human TLR7 (Homo sapiens, UniProt Q9NYK1); experiment: TLR7 inhibition reporter assay (HEK-Blue cells, SEAP reporter, gardiquimod stimulation); conditions: HEK-Blue cells overexpressing human TLR7, SEAP reporter, gardiquimod 7.5 μM
T1 construct: host or cells: HEK-Blue cells (HEK293-derived reporter line)
T1 sequence (Q9NYK1 27-1049): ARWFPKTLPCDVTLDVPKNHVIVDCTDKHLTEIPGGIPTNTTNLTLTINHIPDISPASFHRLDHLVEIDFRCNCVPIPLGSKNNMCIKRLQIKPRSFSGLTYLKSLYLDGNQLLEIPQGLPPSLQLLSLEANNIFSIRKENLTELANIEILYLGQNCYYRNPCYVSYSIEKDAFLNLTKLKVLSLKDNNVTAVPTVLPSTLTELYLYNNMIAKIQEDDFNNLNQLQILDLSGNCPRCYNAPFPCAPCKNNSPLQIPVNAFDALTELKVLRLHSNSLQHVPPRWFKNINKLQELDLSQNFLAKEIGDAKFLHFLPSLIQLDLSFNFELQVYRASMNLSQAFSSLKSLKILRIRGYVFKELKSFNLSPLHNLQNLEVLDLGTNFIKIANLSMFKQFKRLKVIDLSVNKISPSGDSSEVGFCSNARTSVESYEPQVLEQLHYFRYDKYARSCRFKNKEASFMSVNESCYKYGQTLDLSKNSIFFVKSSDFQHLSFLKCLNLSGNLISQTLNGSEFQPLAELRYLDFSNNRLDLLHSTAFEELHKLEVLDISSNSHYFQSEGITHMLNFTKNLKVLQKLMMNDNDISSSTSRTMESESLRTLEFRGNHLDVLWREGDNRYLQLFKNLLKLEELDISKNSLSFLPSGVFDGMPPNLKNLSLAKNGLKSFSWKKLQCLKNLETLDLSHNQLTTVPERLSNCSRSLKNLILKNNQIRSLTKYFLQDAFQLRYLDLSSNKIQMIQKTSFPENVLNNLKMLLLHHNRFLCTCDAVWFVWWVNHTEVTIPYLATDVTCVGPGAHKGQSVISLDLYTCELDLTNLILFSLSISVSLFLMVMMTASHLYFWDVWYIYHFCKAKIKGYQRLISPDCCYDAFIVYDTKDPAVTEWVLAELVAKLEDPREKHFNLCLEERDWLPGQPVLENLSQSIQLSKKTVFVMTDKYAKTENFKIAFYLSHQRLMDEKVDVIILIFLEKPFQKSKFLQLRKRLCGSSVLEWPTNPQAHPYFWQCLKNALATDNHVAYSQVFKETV
Procedure, shortened: (§1)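 HEK-Blue cells overexpressing the receptor, with NF-κB/AP-1-driven SEAP, were pre-treated 30 min at room temperature with compound (0.05 nM–50 μM), then stimulated with gardiquimod 7.5 μM (TLR7), R848 15.9 μM (TLR8) or ODN2006 5 nM (TLR9). SEAP was read after 22 h at 37 °C as percent inhibition.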

[2] = biological target: T2, human TLR9 (Homo sapiens, UniProt Q9NR96); experiment: TLR9 inhibition reporter assay (HEK-Blue cells, SEAP reporter, ODN2006 stimulation); conditions: HEK-Blue cells overexpressing human TLR9, SEAP reporter, ODN2006 5 nM
T2 construct: host or cells: HEK-Blue cells (HEK293-derived reporter line)
T2 sequence (Q9NR96 26-1032): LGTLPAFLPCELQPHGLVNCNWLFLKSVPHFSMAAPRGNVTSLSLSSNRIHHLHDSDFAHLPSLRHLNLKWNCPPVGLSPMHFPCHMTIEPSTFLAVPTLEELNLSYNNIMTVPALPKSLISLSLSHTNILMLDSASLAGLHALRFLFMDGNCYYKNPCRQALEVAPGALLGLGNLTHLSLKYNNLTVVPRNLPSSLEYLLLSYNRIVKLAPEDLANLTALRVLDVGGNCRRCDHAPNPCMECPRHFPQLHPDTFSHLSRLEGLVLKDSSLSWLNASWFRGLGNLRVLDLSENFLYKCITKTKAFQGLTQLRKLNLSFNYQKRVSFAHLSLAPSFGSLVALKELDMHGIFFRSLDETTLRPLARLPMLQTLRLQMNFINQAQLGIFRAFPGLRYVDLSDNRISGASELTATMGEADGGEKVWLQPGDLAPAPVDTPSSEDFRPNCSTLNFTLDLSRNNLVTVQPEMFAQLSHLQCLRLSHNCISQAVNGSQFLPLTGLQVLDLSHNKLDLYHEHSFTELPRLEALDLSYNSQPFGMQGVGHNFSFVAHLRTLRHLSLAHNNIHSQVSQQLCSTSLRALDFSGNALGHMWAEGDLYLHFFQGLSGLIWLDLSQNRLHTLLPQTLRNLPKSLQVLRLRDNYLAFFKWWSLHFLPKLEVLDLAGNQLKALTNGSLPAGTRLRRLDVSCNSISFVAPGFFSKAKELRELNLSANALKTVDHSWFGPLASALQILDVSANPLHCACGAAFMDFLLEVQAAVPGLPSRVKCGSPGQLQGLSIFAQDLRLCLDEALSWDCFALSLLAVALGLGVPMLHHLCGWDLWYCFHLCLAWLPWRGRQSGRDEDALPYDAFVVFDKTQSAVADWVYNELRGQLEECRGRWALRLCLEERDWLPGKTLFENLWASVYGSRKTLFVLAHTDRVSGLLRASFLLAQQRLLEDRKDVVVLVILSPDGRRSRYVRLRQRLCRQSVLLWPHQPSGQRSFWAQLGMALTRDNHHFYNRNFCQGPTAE
Procedure, shortened: as §1

[3] = biological target: T3, human TLR8 (Homo sapiens, UniProt Q9NR97); experiment: TLR8 inhibition reporter assay (HEK-Blue cells, SEAP reporter, R848 stimulation); conditions: HEK-Blue cells overexpressing human TLR8, SEAP reporter, R848 15.9 μM
T3 construct: host or cells: HEK-Blue cells (HEK293-derived reporter line)
T3 sequence (Q9NR97 27-1041): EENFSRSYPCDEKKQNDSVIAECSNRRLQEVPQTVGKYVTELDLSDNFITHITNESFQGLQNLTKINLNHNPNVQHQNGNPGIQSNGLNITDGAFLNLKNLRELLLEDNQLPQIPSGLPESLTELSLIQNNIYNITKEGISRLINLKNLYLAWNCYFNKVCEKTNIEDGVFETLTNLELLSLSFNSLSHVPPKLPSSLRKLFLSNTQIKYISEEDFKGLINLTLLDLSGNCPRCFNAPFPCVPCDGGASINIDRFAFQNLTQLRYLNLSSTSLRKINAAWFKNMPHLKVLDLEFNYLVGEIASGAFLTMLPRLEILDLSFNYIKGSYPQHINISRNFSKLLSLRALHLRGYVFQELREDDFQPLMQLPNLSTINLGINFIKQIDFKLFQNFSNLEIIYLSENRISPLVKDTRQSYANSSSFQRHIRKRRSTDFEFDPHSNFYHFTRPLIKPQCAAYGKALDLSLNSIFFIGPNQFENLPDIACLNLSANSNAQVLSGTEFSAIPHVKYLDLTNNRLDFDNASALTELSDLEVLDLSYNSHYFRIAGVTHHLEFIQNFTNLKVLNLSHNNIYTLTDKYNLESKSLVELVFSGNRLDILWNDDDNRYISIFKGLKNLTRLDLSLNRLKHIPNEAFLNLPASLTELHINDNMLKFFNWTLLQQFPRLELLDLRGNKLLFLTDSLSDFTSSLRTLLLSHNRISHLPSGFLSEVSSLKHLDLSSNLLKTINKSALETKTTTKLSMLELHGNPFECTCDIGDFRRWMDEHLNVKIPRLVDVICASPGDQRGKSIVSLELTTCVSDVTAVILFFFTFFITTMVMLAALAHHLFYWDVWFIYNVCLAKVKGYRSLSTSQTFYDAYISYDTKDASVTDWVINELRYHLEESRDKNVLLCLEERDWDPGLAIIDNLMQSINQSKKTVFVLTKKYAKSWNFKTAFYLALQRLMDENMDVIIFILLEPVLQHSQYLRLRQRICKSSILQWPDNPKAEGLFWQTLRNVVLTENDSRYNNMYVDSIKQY
Procedure, shortened: as §1

Row | Compound | IC50 [1] [nM] | IC50 [2] [nM] | IC50 [3] [nM]
1 | CC(C)c1c(-c2cnc3ccnn3c2)[nH]c2ccc(C3CCN(C4COC4)CC3)cc12 [Example 713, 6-(3-isopropyl-5-(1-(oxetan-3-yl)piperidin-4-yl)-1H-indol-2-yl)pyrazolo[1,5-a]pyrimidine] | > 3130 | 1000 to 50000 | > 3130
2 | CCc1c(-c2n[nH]c3ncccc23)[nH]c2ccc(C3CCNCC3)cc12 [Example 244, 3-(3-ethyl-5-(piperidin-4-yl)-1H-indol-2-yl)-1H-pyrazolo[3,4-b]pyridine] | 100 to 1000 | 1000 to 50000 | 100 to 1000
3 | CC(C)c1c(-c2cn3cnnc3c(=O)n2C)[nH]c2ccc(C3CCNCC3)cc12 [Example 237, 6-(3-isopropyl-5-(piperidin-4-yl)-1H-indol-2-yl)-7-methyl-[1,2,4]triazolo[4,3-a]pyrazin-8(7H)-one] | > 3130 | 1000 to 50000 | > 3130
4 | CCc1c(-c2cccc3[nH]ncc23)[nH]c2ccc(C3CCN(CC(=O)NC)CC3)cc12 [Example 388, 2-(4-(3-ethyl-2-(1H-indazol-4-yl)-1H-indol-5-yl)piperidin-1-yl)-N-methylacetamide] | 1000 to 50000 | > 50000 | 1000 to 50000
5 | Cc1c(-c2ccnc3[nH]cc(C(C)C)c23)[nH]c2ccc(C3CCNCC3)cc12 [Example 214, 3-isopropyl-4-(3-methyl-5-(piperidin-4-yl)-1H-indol-2-yl)-1H-pyrrolo[2,3-b]pyridine] | 1000 to 50000 | 100 to 1000 | 1000 to 50000
6 | Cc1c(-c2ccnc3[nH]cc(C)c23)[nH]c2ccc(C3CCNCC3)cc12 [Example 4, 3-methyl-4-(3-methyl-5-(piperidin-4-yl)-1H-indol-2-yl)-1H-pyrrolo[2,3-b]pyridine] | 100 to 1000 | 100 to 1000 | 100 to 1000
7 | COc1cc(-c2[nH]c3ccc(C4CCN(CC(=O)N(C)C)CC4)cc3c2C(C)C)cn2ccnc12 [Example 433, 2-(4-(3-isopropyl-2-(8-methoxyimidazo[1,2-a]pyridin-6-yl)-1H-indol-5-yl)piperidin-1-yl)-N,N-dimethylacetamide] | < 100 | 100 to 1000 | < 100

Other lines, results leading:

Row | IC50 [1] [nM] | IC50 [2] [nM] | IC50 [3] [nM] | Compound
8 | < 100 | 1000 to 50000 | < 100 | Cc1cc(-c2[nH]c3ccc(C4CCNCC4)cc3c2C(C)C)c(C)n2nnnc12 [Example 74, 6-(3-isopropyl-5-(piperidin-4-yl)-1H-indol-2-yl)-5,8-dimethyltetrazolo[1,5-a]pyridine]
9 | < 100 | 1000 to 50000 | < 100 | Cc1cc(-c2[nH]c3ccc(C4CCN(Cc5ncn(C)n5)CC4)cc3c2C(C)C)cn2nnnc12 [Example 885, 6-(3-isopropyl-5-(1-((1-methyl-1H-1,2,4-triazol-3-yl)methyl)piperidin-4-yl)-1H-indol-2-yl)-8-methyltetrazolo[1,5-a]pyridine]
10 | < 100 | 100 to 1000 | < 100 | Cc1cc(-c2[nH]c3ccc(C4CCN(C5CCOCC5)CC4)cc3c2C(C)C)cc2cncn12 [Example 707, 7-(3-isopropyl-5-(1-(tetrahydro-2H-pyran-4-yl)piperidin-4-yl)-1H-indol-2-yl)-5-methylimidazo[1,5-a]pyridine]
11 | < 100 | 100 to 1000 | < 100 | CC(C)c1c(-c2ccnc3[nH]ncc23)[nH]c2ccc(C3CCN(C(=O)CN4CC[C@@H](O)C4)CC3)cc12 [Example 579, (R)-2-(3-hydroxypyrrolidin-1-yl)-1-(4-(3-isopropyl-2-(1H-pyrazolo[3,4-b]pyridin-4-yl)-1H-indol-5-yl)piperidin-1-yl)ethan-1-one]
12 | < 100 | > 50000 | < 100 | CC(C)c1c(-c2ccnc3[nH]ncc23)[nH]c2ccc(C3CCN(C(=O)CS(C)(=O)=O)CC3)cc12 [Example 614, 1-(4-(3-isopropyl-2-(1H-pyrazolo[3,4-b]pyridin-4-yl)-1H-indol-5-yl)piperidin-1-yl)-2-(methylsulfonyl)ethan-1-one]
